Data: patent publication US11806342B2, “Diiodohydroxyquinoline for the treatment of clostridium difficile infection” (Purdue Research Foundation, priority 2019, dated 2023)
Converted amounts (≈) assume the structure as drawn.

Assays:
Assay type in all cases: cell-based, Clostridium difficile
[1] = test system: 38 tested C. difficile strains; assay: MIC and MBC over the panel of clinical isolates (MIC50, MIC90, range); conditions: for MIC90: concentration inhibiting growth of 90% of the tested isolates, read-out: MIC90
Method: MIC50 and MIC90 are the minimum concentration of each agent that inhibited growth of 50% and 90% of the tested isolates, respectively. The minimum bactericidal concentration (MBC) of these drugs was tested by plating 5 μL from wells with no growth onto BHIS agar plates. The MBC was categorized as the lowest concentration that reduced bacterial growth by 99.9% MIC50 and MIC90 are the minimum concentration of each agent that inhibited the growth of 50% and 90% of the tested isolates, respectively. The minimum bactericidal concentration (MBC) of these drugs was tested by plating 5 μL from wells with no growth onto BHIS agar plates. The MBC was categorized as the lowest concentration that reduced bacterial growth by 99.9% [29-31].

C. difficile HM-745 = assay: MIC and MBC, broth microdilution; conditions: Clostridioides difficile, HM745, C. difficile HM-745; for MBC: read-out: MBC; for MIC: read-out: MIC
Method: (§1) Antibacterial activity of Diiodohydroxyquinoline against a wide panel of Clostridium difficile strains. […] MIC50 and MIC90 are the minimum concentration of each agent that inhibited growth of 50% and 90% of the tested isolates, respectively. The minimum bactericidal concentration (MBC) of these drugs was tested by plating 5 μL from wells with no growth onto BHIS agar plates. The MBC was categorized as the lowest concentration that reduced bacterial growth by 99.9% MIC50 and MIC90 are the minimum concentration of each agent that inhibited the growth of 50% and 90% of the tested isolates, respectively. The minimum bactericidal concentration (MBC) of these drugs was tested by plating 5 μL from wells with no growth onto BHIS agar plates. The MBC was categorized as the lowest concentration that reduced bacterial growth by 99.9% [29-31].

C. difficile P5 = assay: MIC and MBC, broth microdilution; conditions: Clostridioides difficile, C. difficile P5; for MBC: read-out: MBC; for MIC: read-out: MIC
Method: as §1

C. difficile P19 = assay: MIC and MBC, broth microdilution; conditions: Clostridioides difficile, C. difficile P19; for MBC: read-out: MBC; for MIC: read-out: MIC
Method: as §1

C. difficile I11 = assay: MIC and MBC, broth microdilution; conditions: Clostridioides difficile, C. difficile I11; for MBC: read-out: MBC; for MIC: read-out: MIC
Method: as §1

C. difficile P30 = assay: MIC and MBC, broth microdilution; conditions: Clostridioides difficile, C. difficile P30; for MBC: read-out: MBC; for MIC: read-out: MIC
Method: as §1

C. difficile P15 = assay: MIC and MBC, broth microdilution; conditions: Clostridioides difficile, C. difficile P15; for MBC: read-out: MBC; for MIC: read-out: MIC
Method: as §1

C. difficile P3 = assay: MIC and MBC, broth microdilution; conditions: Clostridioides difficile, C. difficile P3; for MBC: read-out: MBC; for MIC: read-out: MIC
Method: as §1

C. difficile I13 = assay: MIC and MBC, broth microdilution; conditions: Clostridioides difficile, C. difficile I13; for MBC: read-out: MBC; for MIC: read-out: MIC
Method: as §1

C. difficile NR-49278 = assay: MIC and MBC, broth microdilution; conditions: Clostridioides difficile, NR49278, C. difficile NR-49278; for MBC: read-out: MBC; for MIC: read-out: MIC
Method: as §1

C. difficile I9 [2] = assay: MIC and MBC, broth microdilution; conditions: Clostridioides difficile, C. difficile I9; for MBC: read-out: MBC; for MIC: read-out: MIC
Method: as §1

C. difficile ATCC 43255 [3] = assay: Spore inhibition assay; conditions: five days
Method: (§2) The spore inhibition assay was performed as described in previous reports to investigate the effect of diiodohydroxyquinoline on C. difficile spore formation. Briefly, […], the bacterial suspension was split into microcentrifuge tubes and drugs were added (in triplicates) at concentrations equal to ½×MIC or 1×MIC. Tubes were then, incubated anaerobically for five days at 37° C. Thereafter, an aliquot from each tube was diluted and plated on BHIS agar plates supplemented with 0.1% taurocholic acid, to count the total bacterial counts (vegetative bacteria+spores). The remaining solution was centrifuged, and the pellet was suspended in PBS, stored overnight at 4° C., and subsequently shock-heated at 70° C. for 30 minutes to kill the vegetative cells. The resulting solution was serially diluted and plated to determine the heat-resistant spore counts. Spore inhibition assay was performed as described in previous reports to investigate the effect of DIHQ on C. difficile spore formation. Briefly, log-phase cultures of C. difficile strains (ATCC BAA-1870, ATCC 43255, and NR-49277) were diluted in BHIS to an initial density of ˜10^6 CFU/mL. Afterwards, the bacterial suspension was split in small tubes and the drugs were added (in triplicates) at concentrations equal to ½×MIC or 1×MIC. Tubes were then incubated anaerobically for 5 days at 37° C. After that, an aliquot from each tube was diluted and plated on BHIS agar plates supplemented with 0.1% taurocholic acid, to count the total bacterial count (vegetative bacteria+spores). The remaining solution was centrifuged, and the pellet was suspended in PBS and stored overnight at 4° C. then shock heated at 70° C. for 30 minutes to kill the vegetative cells. The resulting solution was serially diluted and plated to determine the heat-resistant spore counts.

[4] = test system: C. difficile ATCC BAA-1870; assay: Spore inhibition assay; conditions: five days
Method: as §2

C. difficile NR-49277 = assay: Spore inhibition assay; conditions: five days
Method: as §2

C. difficile ATCC 43255 [5] = assay: Checkerboard assay, DIHQ with metronidazole or vancomycin; conditions: C. difficile ATCC 43255
Method: (§3) The fractional inhibitory concentration index (ΣFIC) was calculated for each interaction. Interactions where the ΣFIC index was ≤0.5 were categorized as synergistic (SYN).

[6] = test system: C. difficile ATCC BAA-1870; assay: as above; conditions: C. difficile ATCC BAA-1870
Method: as §3

C. difficile I9 [7] = assay: as above; conditions: C. difficile I9
Method: as §3

Structure (SMILES) | MIC90 ([1]; Clostridioides difficile) [µg/mL] | MBC (C. difficile HM-745) [µg/mL] | MIC (C. difficile HM-745) [µg/mL] | MBC (C. difficile P5) [µg/mL] | MIC (C. difficile P5) [µg/mL] | MBC (C. difficile P19) [µg/mL] | MIC (C. difficile P19) [µg/mL] | MBC (C. difficile I11) [µg/mL] | MIC (C. difficile I11) [µg/mL] | MBC (C. difficile P30) [µg/mL] | MIC (C. difficile P30) [µg/mL] | MBC (C. difficile P15) [µg/mL] | MIC (C. difficile P15) [µg/mL] | MBC (C. difficile P3) [µg/mL] | MIC (C. difficile P3) [µg/mL] | MBC (C. difficile I13) [µg/mL] | MIC (C. difficile I13) [µg/mL] | MBC (C. difficile NR-49278) [µg/mL] | MIC (C. difficile NR-49278) [µg/mL] | MBC (C. difficile I9 [2]) [µg/mL] | also measured
CCc1c(Cl)c(O)c(Cl)c(O)c1C(=O)O[C@H]1[C@H](O)[C@H](OC)[C@H](OC/C2=C\C=C\C[C@H](O)/C(C)=C/[C@H](CC)[C@@H](O[C@@H]3OC(C)(C)[C@@H](OC(=O)C(C)C)[C@H](O)[C@@H]3O)/C(C)=C/C(C)=C/C[C@@H]([C@@H](C)O)OC2=O)O[C@@H]1C [Fidaxomicin, fidaxomicin] | 0.06 (≈ 0.0567 µM) | 0.125 (≈ 0.118 µM) | 0.06 (≈ 0.0567 µM) | 0.03 (≈ 0.0284 µM) | 0.03 (≈ 0.0284 µM) | 0.06 (≈ 0.0567 µM) | 0.03 (≈ 0.0284 µM) | 0.015 (≈ 0.0142 µM) | 0.015 (≈ 0.0142 µM) | 0.007 (≈ 0.00662 µM) | 0.007 (≈ 0.00662 µM) | 0.06 (≈ 0.0567 µM) | 0.06 (≈ 0.0567 µM) | 0.03 (≈ 0.0284 µM) | 0.015 (≈ 0.0142 µM) | 0.03 (≈ 0.0284 µM) | 0.03 (≈ 0.0284 µM) | 0.015 (≈ 0.0142 µM) | 0.007 (≈ 0.00662 µM) | 0.03 (≈ 0.0284 µM) | MIC50 ([1]; Clostridioides difficile, concentration inhibiting growth of 50% of the tested isolates, read-out: MIC50): 0.015 µg/mL (≈ 0.0142 µM); MIC (C. difficile I9 [2]): 0.03 µg/mL (≈ 0.0284 µM); reduction in spore count (C. difficile ATCC 43255 [3]; C. difficile ATCC 43255, 1×MIC): ~1.8 log10; reduction in spore count (C. difficile ATCC 43255 [3]; C. difficile ATCC 43255, ½×MIC): ~0.75 log10; reduction in spore count ([4]; C. difficile ATCC BAA-1870, 1×MIC): ~1.8 log10; reduction in spore count ([4]; C. difficile ATCC BAA-1870, ½×MIC): ~1.02 log10; reduction in spore count (C. difficile NR-49277; C. difficile NR-49277, 1×MIC): ~1.27 log10; reduction in spore count (C. difficile NR-49277; C. difficile NR-49277, ½×MIC): ~0.8 log10
Cc1ncc([N+](=O)[O-])n1CCO [Metronidazole, metronidazole] | 0.25 (≈ 1.46 µM) | 0.5 (≈ 2.92 µM) | 0.5 (≈ 2.92 µM) | 0.25 (≈ 1.46 µM) | 0.25 (≈ 1.46 µM) | 0.25 (≈ 1.46 µM) | 0.25 (≈ 1.46 µM) | 0.25 (≈ 1.46 µM) | 0.25 (≈ 1.46 µM) | 0.5 (≈ 2.92 µM) | 0.5 (≈ 2.92 µM) | 0.25 (≈ 1.46 µM) | 0.25 (≈ 1.46 µM) | 0.25 (≈ 1.46 µM) | 0.25 (≈ 1.46 µM) | 0.5 (≈ 2.92 µM) | 0.25 (≈ 1.46 µM) | 0.5 (≈ 2.92 µM) | 0.25 (≈ 1.46 µM) | 0.06 (≈ 0.351 µM) | MIC range ([1]; over the 38 tested C. difficile strains): 0.06 to 0.5 µg/mL; MIC (C. difficile I9 [2]): 0.06 µg/mL (≈ 0.351 µM); MIC of metronidazole combined with DIHQ (C. difficile ATCC 43255 [5]): 0.015 µg/mL; MIC of metronidazole combined with DIHQ [6]: 0.015 µg/mL; MIC of metronidazole combined with DIHQ (C. difficile I9 [7]): 0.015 µg/mL; reduction in spore count (in words) (C. difficile ATCC 43255 [3]; C. difficile ATCC 43255, ½×MIC or 1×MIC): almost no reduction; reduction in spore count (in words) ([4]; C. difficile ATCC BAA-1870, ½×MIC or 1×MIC): almost no reduction; reduction in spore count (in words) (C. difficile NR-49277; C. difficile NR-49277, ½×MIC or 1×MIC): almost no reduction
